Patent US12624018B1, “Inhibitors of RIPK2 and medical uses thereof” (Odyssey Therapeutics, Inc., priority 2022, dated 2026)

Each compound was assayed against T1, RIPK2 enzyme (Homo sapiens, UniProt O43353) (assay: RIPK2 inhibition (ADP-Glo Kinase Assay)). Details: RIPK2 5 nM, ATP 150 μM, MBP substrate, read-out: RIPK2 IC50.
T1 construct: purchased Carna 09-128
T1 sequence (O43353 1-299 limits assumed): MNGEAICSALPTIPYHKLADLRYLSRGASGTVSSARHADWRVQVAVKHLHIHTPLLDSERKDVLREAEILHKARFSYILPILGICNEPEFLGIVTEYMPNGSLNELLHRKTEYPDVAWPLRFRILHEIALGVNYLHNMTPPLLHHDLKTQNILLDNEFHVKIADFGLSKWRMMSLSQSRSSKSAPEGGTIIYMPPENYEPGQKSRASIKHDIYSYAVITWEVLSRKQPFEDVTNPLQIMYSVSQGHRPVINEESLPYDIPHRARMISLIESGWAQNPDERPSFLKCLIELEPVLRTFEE
Format: biochemical
Protocol: RIPK2 inhibition was measured as follows:
The V9102 ADP-Glo Kinase Assay (including ultrapure ATP, 10 mM) was purchased from Promega. Native swine MBP was used as the substrate for the reaction and was purchased from SignalChem Biotech (catalogue number M42-51N). Assay buffer used for the assay consisted of the following components: MgCl2 (final concentration of 10 mM), Brij-35 (0.01%), DTT (final concentration of 2 mM), BSA (0.05%), EGTA (final concentration of 1 mM), and HEPE (pH 7.5 at final concentration of 50 mM).
Method: In a 384 well plate, 10 nL of test compound was dispensed using Echo550 and mixed with RIPK2 enzyme (final concentration of 5 nM) in assay buffer for 30 minutes at room temperature. […] Then ADP-Glo reagent was added and incubated for 60 min at room temperature. Last, Kinase Detection Reagent was added to the mixture and incubated for 60 min. The resulting luminescent signal was measured with an Envision reader to determine the amount of ADP produced. All plates contained vehicle controls (10 nL DMSO only) as a reference for the high control (0% kinase inhibition), and wells with no RIPK2 enzyme as reference for low control (100% kinase inhibition). Data were analyzed to determine the percent inhibition of ADP production in the presence of test compound using both low and high controls.
For Cc1cc(CC(=O)Nc2cnn(C(C)(C)C)c2)ccc1Oc1ccnc2ccc(S(=O)(=O)CC3COC3)cc12 [Compound 240, N-(1-(tert-butyl)-1H-pyrazol-4-yl)-2-(3-methyl-4-((6-((oxetan-3-ylmethyl)sulfonyl)quinolin-4-yl)oxy)phenyl)acetamide], the IC50 was < 2.5 nM. In the case of Cc1c(Oc2ccnc3ccc(S(=O)(=O)C4CC(O)C4)cc23)ccc(CC(=O)Nc2cnn(C(C)(C)C)c2)c1F (single isomer, unassigned) [Compound 285, N-(1-(tert-butyl)-1H-pyrazol-4-yl)-2-(2-fluoro-4-((6-((-3-hydroxycyclobutyl)sulfonyl)quinolin-4-yl)oxy)-3-methylphenyl)acetamide], the IC50 is reported as < 2.5 nM. With Cc1c(Oc2ccnc3ccc(S(=O)(=O)C4CC(N)C4)cc23)ccc(CC(=O)Nc2cnn(C(C)(C)C)c2)c1F (single isomer, unassigned) [Compound 288, 2-(4-((6-((-3-aminocyclobutyl)sulfonyl)quinolin-4-yl)oxy)-2-fluoro-3-methylphenyl)-N-(1-(tert-butyl)-1H-pyrazol-4-yl)acetamide] the IC50 was < 2.5 nM. For CN1CCC(Oc2ccc3ncnc(Oc4cnc(CC(=O)Nc5cc(C(C)(C)C)[nH]n5)c(F)c4)c3c2)CC1 [Compound 57, N-(5-(tert-butyl)-1H-pyrazol-3-yl)-2-(3-fluoro-5-((6-((1-methylpiperidin-4-yl)oxy)quinazolin-4-yl)oxy)pyridin-2-yl)acetamide], the IC50 was < 2.5 nM. An IC50 of 5.6 nM was found for COc1ccc2nccc(Oc3ccc(CC(=O)Nc4cnn(C(C)(C)C)c4)c(F)c3)c2c1 [Compound 1, N-(1-(tert-butyl)-1H-pyrazol-4-yl)-2-(2-fluoro-4-((6-methoxy-quinolin-4-yl)oxy)phenyl) acetamide] in this work. Cc1cc(CC(=O)Nc2cnn(C(C)(C)C)c2)ccc1Oc1ccnc2ccc(S(=O)(=O)CC3CCOC3)cc12 (single isomer, unassigned) [Compound 241, N-(1-(tert-butyl)-1H-pyrazol-4-yl)-2-(3-methyl-4-((6-(((tetrahydrofuran-3-yl)methyl)sulfonyl)quinolin-4-yl)oxy)phenyl)acetamide] was tested, and the IC50 was < 2.5 nM. In the case of Cc1cc(CC(=O)Nc2cnn(C(C)(C)C)c2)c(F)cc1Oc1ccnc2ccc(C(=O)N3CC(N)C3)cc12 [Compound 374, 2-(4-((6-(3-amino-azetidine-1-carbonyl)quinolin-4-yl)oxy)-2-fluoro-5-methyl-phenyl)-N-(1-(tert-butyl)-1H-pyrazol-4-yl)acetamide], the IC50 is reported as < 2.5 nM. Cc1cc(CC(=O)Nc2cnn(C(C)(C)C)c2)ccc1Oc1ccnc2ccc(S(=O)(=O)N(C)C)cc12 [Compound 256, N-(1-(tert-butyl)-1H-pyrazol-4-yl)-2-(4-((6-(N,N-dimethylsulfamoyl)quinolin-4-yl)oxy)-3-methylphenyl)acetamide] was tested, and the IC50 was < 2.5 nM. In the case of Cc1cc(CC(=O)Nc2cnn(C(C)(C)C)c2)ccc1Oc1ccnc2ccc(N3CCC(F)(F)C3=O)cc12 [Compound 325, N-(1-(tert-butyl)-1H-pyrazol-4-yl)-2-(4-((6-(3,3-difluoro-2-oxopyrrolidin-1-yl)quinolin-4-yl)oxy)-3-methylphenyl) acetamide], the IC50 is reported as < 2.5 nM. For Cc1cc(CC(=O)Nc2cnn(C(C)(C)C)c2)ccc1Oc1ccnc2ccc(OC3CCN(CC(F)(F)F)CC3)cc12 [Compound 110, N-(1-(tert-butyl)-1H-pyrazol-4-yl)-2-(3-methyl-4-((6-((1-(2,2,2-trifluoroethyl)piperidin-4-yl)oxy)quinolin-4-yl)oxy)phenyl) acetamide], the IC50 was < 2.5 nM. With CC(C)(C)n1cc(NC(=O)Cc2ccc(Oc3ccnc4ccc(OC5CCNCC5)cc34)c(F)c2F)cn1 [Compound 165, N-(1-(tert-butyl)-1H-pyrazol-4-yl)-2-(2,3-difluoro-4-((6-(piperidin-4-yloxy)quinolin-4-yl)oxy)phenyl) acetamide] the IC50 was < 2.5 nM. In the case of [2H]C([2H])([2H])n1nc(NC(=O)Cc2ccc(Oc3ccnc4ccc(S(C)(=O)=O)cc34)c(C)c2)cc1C(C)(C)C [Compound 231, N-(5-(tert-butyl)-1-(methyl-d3)-1H-pyrazol-3-yl)-2-(3-methyl-4-((6-(methylsulfonyl)quinolin-4-yl)oxy)phenyl)acetamide], the IC50 is reported as < 2.5 nM. An IC50 of 2.9 nM was found for CC(C)(C)n1cc(NC(=O)Cc2ccc(Oc3ccnc4ccc(S(C)(=N)=O)cc34)c(Cl)c2)cn1 (stereo not drawn) [Compound 90, N-(1-(tert-butyl)-1H-pyrazol-4-yl)-2-(3-chloro-4-((6-(S-methylsulfonimidoyl)quinolin-4-yl)oxy)phenyl)acetamide] in this work. With CCS(=O)(=O)c1ccc2nccc(Oc3ccc(CC(=O)Nc4cnn(C(C)(C)C)c4)cc3C(F)F)c2c1 [Compound 417, N-(1-(tert-butyl)-1H-pyrazol-4-yl)-2-(3-(difluoromethyl)-4-((6-(ethylsulfonyl)quinolin-4-yl)oxy)phenyl) acetamide] the IC50 was < 2.5 nM. With Cc1cc(CC(=O)Nc2cnn(C(C)(C)C)c2)ccc1Oc1ccnc2ccc(N3CC(CO)OC3=O)cc12 (single isomer, unassigned) [Compound 318, N-(1-(tert-butyl)-1H-pyrazol-4-yl)-2-(4-((6-(5-(hydroxymethyl)-2-oxooxazolidin-3-yl)quinolin-4-yl)oxy)-3-methylphenyl) acetamide] the IC50 was < 2.5 nM. For Cc1cc(CC(=O)Nc2cnn(C(C)(C)C)c2)ccc1Oc1ccnc2ccc(N(C)S(C)(=O)=O)cc12 [Compound 265, N-(1-(tert-butyl)-1H-pyrazol-4-yl)-2-(3-methyl-4-((6-(N-methylmethyl-sulfonamido)quinolin-4-yl)oxy)phenyl) acetamide], the IC50 was < 2.5 nM. With COC1CN(C(=O)c2ccc3nccc(Oc4cc(F)c(CC(=O)Nc5cnn(C(C)(C)C)c5)cc4C)c3c2)C1 [Compound 448, N-(1-(tert-butyl)-1H-pyrazol-4-yl)-2-(2-fluoro-4-((6-(3-methoxyazetidine-1-carbonyl)quinolin-4-yl)oxy)-5-methylphenyl)acetamide] the IC50 was < 2.5 nM. With CC(C)(C)n1cc(NC(=O)Cc2ccc(Oc3ccnc4ccc(OC5CCNCC5)cc34)cc2F)cn1 [Compound 81, N-(1-(tert-butyl)-1H-pyrazol-4-yl)-2-(2-fluoro-4-((6-(piperidin-4-yloxy)quinolin-4-yl)oxy)phenyl) acetamide] the IC50 was < 2.5 nM. An IC50 of 13.3 nM was found for CN1CCC(COc2ccc3ncnc(Oc4cnc(CC(=O)Nc5cnn(C(C)(C)C)c5)c(F)c4)c3c2)CC1 [Compound 61, N-(1-(tert-butyl)-1H-pyrazol-4-yl)-2-(3-fluoro-5-((6-((1-methylpiperidin-4-yl)methoxy)quinazolin-4-yl)oxy)pyridin-2-yl)acetamide] in this work. In the case of Cc1cc(CC(=O)Nc2cc(C(C)(C)O)[nH]n2)ccc1Oc1ccnc2ccc(S(C)(=O)=O)cc12 [Compound 236, N-(5-(2-hydroxypropan-2-yl)-1H-pyrazol-3-yl)-2-(3-methyl-4-((6-(methylsulfonyl)quinolin-4-yl)oxy)phenyl)acetamide], the IC50 is reported as < 2.5 nM. In the case of Cc1cc(CC(=O)Nc2cnn(C(C)(C)C)c2)ccc1Oc1ccnc2ccc(S(=O)(=O)C3CCOC3)cc12 (single isomer, unassigned) [Compound 199, N-(1-(tert-butyl)-1H-pyrazol-4-yl)-2-(3-methyl-4-((6-((tetrahydrofuran-3-yl)sulfonyl)quinolin-4-yl)oxy)phenyl)acetamide], the IC50 is reported as < 2.5 nM. For Cc1cc(CC(=O)Nc2cnn(C(C)(C)C)c2)ccc1Oc1ccnc2ccc(N3C(=O)CCC3C)cc12 (single isomer, unassigned) [Compound 292, N-(1-(tert-butyl)-1H-pyrazol-4-yl)-2-(3-methyl-4-((6-(2-methyl-5-oxopyrrolidin-1-yl)quinolin-4-yl)oxy)phenyl) acetamide], the IC50 was < 2.5 nM. CCn1nc(NC(=O)Cc2ccc(Oc3ccnc4ccc(S(C)(=O)=O)cc34)cc2F)cc1C(C)(C)C [Compound 147, N-(5-(tert-butyl)-1-ethyl-1H-pyrazol-3-yl)-2-(2-fluoro-4-((6-(methylsulfonyl)quinolin-4-yl)oxy)phenyl)acetamide] was tested, and the IC50 was < 2.5 nM. With Cc1cc(CC(=O)Nc2cnn(C3CCCC3)c2)ccc1Oc1ccnc2ccc(S(C)(=O)=O)cc12 [Compound 214, N-(1-cyclopentyl-1H-pyrazol-4-yl)-2-(3-methyl-4-((6-(methylsulfonyl)quinolin-4-yl)oxy)phenyl)acetamide] the IC50 was < 2.5 nM. With CNS(=O)(=O)c1ccc2nccc(Oc3ccc(CC(=O)Nc4cnn(C(C)(C)C)c4)c(F)c3C)c2c1 [Compound 268, N-(1-(tert-butyl)-1H-pyrazol-4-yl)-2-(2-fluoro-3-methyl-4-((6-(N-methylsulfamoyl)quinolin-4-yl)oxy)phenyl)acetamide] the IC50 was < 2.5 nM. In the case of Cc1cc(CC(=O)Nc2cnn(C(C)(C)C)c2)c(F)cc1Oc1ccnc2ccc(C(=O)N3CC(C#N)C3)cc12 [Compound 371, N-(1-(tert-butyl)-1H-pyrazol-4-yl)-2-(4-((6-(3-cyano-azetidine-1-carbonyl)quinolin-4-yl)oxy)-2-fluoro-5-methyl-phenyl) acetamide], the IC50 is reported as < 2.5 nM. For COC(C)(C)c1cc(NC(=O)Cc2ccc(Oc3ccnc4ccc(S(C)(=O)=O)cc34)c(C)c2F)[nH]n1 [Compound 331, 2-(2-fluoro-3-methyl-4-((6-(methylsulfonyl)quinolin-4-yl)oxy)phenyl)-N-(5-(2-methoxypropan-2-yl)-1H-pyrazol-3-yl)acetamide], the IC50 was < 2.5 nM.
